Consider 13 molecules from patent US8338472B2, “Hexahydrocyclopentyl[F]indazole carboxamides and derivatives thereof as selective glucocorticoid receptor modulators” (Merck Sharp & Dohme Corp., priority 2008, dated 2012).

Read-outs that look alike come from different tables or passages of the source.

Test [1] concerns the target T1, Glucocorticoid Receptor (Homo sapiens, UniProt P04150).
T1 construct: These cells express large amount of the GR and are very responsive to GC treatment; endogenous in cells; host or cells: A549 cells transiently transfected with the MMTV-LUC reporter
T1 sequence (P04150 1-777): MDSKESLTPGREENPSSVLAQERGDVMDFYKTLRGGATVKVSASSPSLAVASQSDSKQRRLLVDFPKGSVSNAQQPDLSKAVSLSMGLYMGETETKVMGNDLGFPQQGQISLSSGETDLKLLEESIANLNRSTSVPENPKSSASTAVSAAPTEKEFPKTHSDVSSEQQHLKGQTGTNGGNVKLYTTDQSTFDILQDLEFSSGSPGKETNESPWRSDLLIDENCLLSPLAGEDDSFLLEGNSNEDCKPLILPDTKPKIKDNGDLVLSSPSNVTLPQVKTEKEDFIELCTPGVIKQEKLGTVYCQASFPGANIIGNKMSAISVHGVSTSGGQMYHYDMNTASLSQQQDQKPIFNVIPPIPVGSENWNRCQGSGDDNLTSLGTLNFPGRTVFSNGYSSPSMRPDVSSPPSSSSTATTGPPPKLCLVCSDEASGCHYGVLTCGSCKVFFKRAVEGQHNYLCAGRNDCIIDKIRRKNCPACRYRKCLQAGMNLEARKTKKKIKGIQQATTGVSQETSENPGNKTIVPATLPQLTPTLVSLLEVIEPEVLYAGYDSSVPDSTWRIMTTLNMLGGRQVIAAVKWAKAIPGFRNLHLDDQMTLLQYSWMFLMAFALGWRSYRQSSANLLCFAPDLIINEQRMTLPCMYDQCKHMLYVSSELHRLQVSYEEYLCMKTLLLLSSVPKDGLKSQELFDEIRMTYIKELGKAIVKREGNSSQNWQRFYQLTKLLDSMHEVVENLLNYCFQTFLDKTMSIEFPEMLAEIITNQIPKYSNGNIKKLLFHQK
Kind of test: Trans-Activation Modulation of Glucocorticoid Receptor (GRAMMER), MMTV-LUC reporter gene in A549 cells. The conditions noted are these: Table 1; for Emax: A549, A549 cells, Emax relative to 300 nM dexamethasone, read-out: Transactivation A549 Cells GRAMMER Emax; for EC50: inflection point, A549 cells, read-out: Transactivation A549 Cells GRAMMER IP. It is filed as cell-based. The essentials:
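Luciferase from a transiently transfected MMTV-LUC reporter was measured after 24 h compound exposure (≤1% DMSO) in A549 or MDA-MB-453 cells. For antagonism, the decrease of 10 nM dexamethasone-induced signal was calculated. For agonism, Emax was referenced to 300 nM dexamethasone.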

Test [2] concerns the target T2, human GR (Homo sapiens, UniProt P04150).
T2 construct: U937 cells contain an endogenous glucocorticoid receptor (GR); endogenous in cells; host or cells: U937 cells stably transfected with the TNF-alpha promoter/beta-lactamase reporter
T2 sequence (P04150 1-777): T1 sequence (P04150 1-777)
Kind of test: Transrepression Assay (GITAR), TNFα-β-lactamase reporter gene in U937 cells. Type of test: cell-based. The conditions noted are these: for GITAR Greater than by GRAMMER % SEP: GITAR Emax minus GRAMMER Emax; for EC50: inflection point, U937 cells, read-out: Transrepression U937 Cells GITAR IP. The essentials: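 Repression of PMA (5 ng/ml final)/LPS (100 ng/ml final)-induced TNF-α promoter activity, read as β-lactamase cleavage of CCF2-AM, in stably transfected U937 cells expressing native GR. Compound added 30-45 min before stimulation, overnight (~18 hr) 37° C; normalized to 100 nM dexamethasone (100%).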

The target in test [3] is T3, glucocorticoid receptor (GR) (Homo sapiens, UniProt P04150).
T3 sequence (P04150 1-777): T1 sequence (P04150 1-777)
Kind of test: Ligand binding assay (GR BIND), 3H-dexamethasone displacement in MDA-MB-453 cell lysate. The conditions noted are these: GR BIND Ki, Table 1.
Method: Binding Buffer: TEGM (10 mM Tris-HCl, 1 mM EDTA, 10% glycerol, 1 mM beta-mecaptoethanol, 10 mM Sodium Molybdate, pH 7.2)
50% HAP Slurry: Calbiochem Hydroxylapatite, Fast Flow, in 10 mM Tris, pH 8.0 and 1 mM EDTA.
Wash Buffer: 40 mM Tris, pH7.5, 100 mM KCl, 1 mM EDTA and 1 mM EGTA.
Dexmethasone-methyl-^3H, (DEX*); (Amersham cat# TRK645)
Dexamethasone(DEX) (Sigma, cat# D1756):
The cell pellet is washed twice with TEGM (10 mM Tris-HCl, 1 mM EDTA, 10% glycerol, 1 mM beta-mercaptoethanol, 10 mM Sodium Molybdate, pH 7.2). After the final wash, the cells are resuspended in TEGM at a concentration of 10^7 cells/mL. The cell suspension is snap frozen in liquid nitrogen or ethanol/dry ice bath and transferred to −80° C. freezer on dry ice. Before setting up the binding assay, the frozen samples are left on ice-water to just thaw (˜1 hr). Then the samples are centrifuged at 12,500 g to 20,000 g for 30 min at 4° C. The supernatant is used to set-up assay right away. If using 50 μL of supernatant, the test compound can be prepared in 50 μL of the TEGM buffer.
Procedure for Multiple Compound Screening
1×TEGM buffer is prepared, and the isotope-containing assay mixture is prepared in the following order: EtOH (2% final concentration in reaction), ^3H-DEX (Amersham Biosciences) and 1×TEGM. [e.g. For 100 samples, 200 μL (100×2) of EtOH+4.25 μL of 1:10 ^3H-Dex stock+2300 μL (100×23) 1×TEGM]. The compound is serially diluted, e.g., if starting final conc. is 1 μM, and the compound is in 25 μL of solution, for duplicate samples, 75 μL of 4×1 μM solution is made and 3 μL of 100 μM is added to 72 μL of buffer, and 1:5 serial dilution.
25 μL of ^3H-DEX (6 nM) trace and 25 μL compound solution are first mixed together, followed by addition of 50 μL receptor solution. The reaction is gently mixed, spun briefly at about 200 rpm and incubated at 4° C. overnight. 100 μL of 50% HAP slurry is prepared and added to the incubated reaction which is then vortexed and incubated on ice for 5 to 10 minutes. The reaction mixture is vortexed twice more to resuspend HAP while incubating reaction. The samples in 96-well format are then washed in wash buffer using The FilterMate™ Universal Harvester plate washer (Packard). The washing process transfers HAP pellet containing ligand-bound expressed receptor to Unifilter-96 GF/B filter plate (Packard). The HAP pellet on the filter plate is incubated with 50 μL of MICROSCINT (Packard) scintillint for 30 minutes before being counted on the TopCount microscintillation counter (Packard). IC50s are calculated using DEX as a reference.

Setting [4] is: U-937, U937 cells, activity repressed by 100 nM dexamethasone = 100%, Table 1, read-out: Transrepression U937 Cells GITAR Emax.
The mark [5] stands for this setting: U-937, text statement, 100 nM dexamethasone = 100%, read-out: maximal activity in the transrepression assay (GITAR).

Turning to `CN(CCOc1ccccc1)C(=O)[C@H]1CCC2=Cc3c(cnn3-c3ccc(F)cc3)C[C@@]21C` [Compound 48, (4αR,5S)-1-(4-fluorophenyl)-N,4α-dimethyl-N-(2-phenoxyethyl)-1,4,4α,5,6,7-hexahydrocyclopenta[f] indazole-5-carboxamide], the Emax in test [1] was 2.7%; in test [2] (setting [4]) it was 22.8%; in test [2] (setting [5]), > 5%. Moreover, the EC50 stood at 1390 nM in test [1] and 410 nM in test [2] (Table 1). Also, the “GITAR Greater than by GRAMMER % SEP” value in test [2] (Table 1) is recorded as 20.0%. The affinity in test [3] corresponds to a Ki of 7 nM.

`C[C@]12Cc3cnn(-c4ccc(F)cc4)c3C=C1CC[C@@H]2C(=O)N(CCc1ccccc1)Cc1ccccc1` [Compound 49, (4αR,5S)-N-benzyl-1-(4-fluorophenyl)-4α-methyl-N-(2-phenylethyl)-1,4,4,5,6,7-hexahydrocyclopenta[f]indazole-5-carboxamide]: the Emax in test [1] was 1.5%; in test [2] (setting [4]) it was 11.6%; in test [2] (setting [5]) it was > 5%. In addition, the EC50 in test [1] was 260 nM; in test [2] (Table 1) it was 145 nM. Moreover, in test [2] (Table 1), the “GITAR Greater than by GRAMMER % SEP” value was 10.1%. This molecule yielded an inhibition constant Ki in test [3] of 1.9 nM.

As to `COc1ccccc1CN(C)C(=O)[C@H]1CCC2=Cc3c(cnn3-c3ccc(F)cc3)C[C@@]21C` [Compound 50, (4αR,5S)-1-{4-fluorophenyl)-N-(2-methoxybenzyl)-N,4α-dimethyl-hexahydrocyclopenta[f]indazole-5-carboxamide], the values for the Emax in test [1], in test [2] (setting [4]) and in test [2] (setting [5]) were 3.4%, 20.3% and > 5%, respectively. In addition, the EC50 in test [1] was 1460 nM; in test [2] (Table 1) it was 226 nM. The “GITAR Greater than by GRAMMER % SEP” value in test [2] (Table 1) came to 16.9%. For the same molecule, the Ki in test [3] came to 9 nM.

Consider `C[C@]12Cc3cnn(-c4ccc(F)cc4)c3C=C1CC[C@@H]2C(=O)N1CCC(S(=O)(=O)c2ccccc2)CC1` [Compound 51, (4αR,5S)-1-(4-fluorophenyl)-4α-methyl-5-{[4-(phenylsulfonyl)piperidin-1-yl]carbonyl}1,4,4α,5,6,7-hexahydrocyclopenta[f]indazole], for which the Emax in test [1] was 2.9%; in test [2] (setting [4]), 35.1%; in test [2] (setting [5]), > 5%. The EC50 was found to be 1190 nM in test [1] and 1380 nM in test [2] (Table 1). Also, the “GITAR Greater than by GRAMMER % SEP” value in test [2] (Table 1) is given as 32.2%. This molecule also came in with a Ki in test [3] of 39.5 nM.

In the case of `CCN(Cc1ccccc1)C(=O)[C@H]1CCC2=Cc3c(cnn3-c3ccc(F)cc3)C[C@@]21C` [Compound 52, (4αR,5S}-N-benzyl-N-ethyl-1-(4-fluorophenyl)-4α-methyl-1,4,4α,5,6,7-hexahydrocyclopenta[f]indazole-5-carboxamide], the Emax in test [1] was 11.6%; in test [2] (setting [4]), 33.2%; in test [2] (setting [5]), > 5%. Besides, the EC50 in test [1] was determined as 1710 nM; in test [2] (Table 1) it was 971 nM. In addition, the “GITAR Greater than by GRAMMER % SEP” value in test [2] (Table 1) is 21.7%. In test [3], this molecule returned a Ki of 2.6 nM.

For the molecule `CC1CC(C)CN(C(=O)[C@H]2CCC3=Cc4c(cnn4-c4ccc(F)cc4)C[C@@]32C)C1` (stereo partly drawn) [Compound 53, (4αR,5S)-5-[(3,5-dimethylpiperidin-1-yl)carbonyl]-1-(4-fluorophenyl)-4α-methyl-1,4,4α,5,6,7-hexahydrocyclopenta[f]indazole], the Emax was 18.3% in test [1], 58.4% in test [2] (setting [4]) and > 5% in test [2] (setting [5]). For the same molecule, the EC50 in test [1] is 2290 nM; in test [2] (Table 1) it was 2250 nM. Also, the “GITAR Greater than by GRAMMER % SEP” value in test [2] (Table 1) was 40.2%. Further, the Ki in test [3] turned out to be 37.4 nM.

As for `CC(C)CN(C)C(=O)[C@H]1CCC2=Cc3c(cnn3-c3ccc(F)cc3)C[C@@]21C` [Compound 54, (4αR,5S)-1-(4-fluorophenyl)-N-isobutyl-N,4α-dimethyl-1,4,4α,5,6,7-hexahydrocyclopenta[f]indazole-5-carboxamide], the values for the Emax in test [1], in test [2] (setting [4]) and in test [2] (setting [5]) were 3.1%, 40.5% and > 5%, respectively. In addition, the EC50 in test [1] was found to be 1250 nM; in test [2] (Table 1), 2210 nM. Also, the “GITAR Greater than by GRAMMER % SEP” value in test [2] (Table 1) worked out at 37.4%. The molecule also showed a Ki in test [3] of 32.1 nM.

For the molecule `CCN(CC)C(=O)[C@H]1CCC2=Cc3c(cnn3-c3ccc(F)cc3)C[C@@]21C` [Compound 55, (4αR,5S)-N,N-diethyl-1-(4-fluorophenyl)-4α-methyl-1,4,4α,5,6,7-hexahydrocyclopenta[f]indazole-5-carboxamide], the Emax in test [1] was 1.6%; in test [2] (setting [4]), 23.9%; in test [2] (setting [5]), > 5%. The values for the EC50 in test [1] and in test [2] (Table 1) were 5000 nM and 3950 nM, respectively. Besides, the “GITAR Greater than by GRAMMER % SEP” value in test [2] (Table 1) was determined as 22.3%. Further, affinity in test [3] was put at a Ki of 53.5 nM.

As for `CCCCN(CCC)C(=O)[C@H]1CCC2=Cc3c(cnn3-c3ccc(F)cc3)C[C@@]21C` [Compound 56, (4αR,5S)-N-butyl-1-{4-fluorophenyl)-4α-methyl-N-propyl-1,4,4α,5,6,7-hexahydrocyclopenta[f]indazole-5-carboxamide], the results for the Emax in test [1], in test [2] (setting [4]) and in test [2] (setting [5]) were 44.1%, 68.1% and > 5%, respectively. In addition, the figures for the EC50 in test [1] and in test [2] (Table 1) were 430 nM and 595 nM, respectively. In addition, in test [2] (Table 1), the “GITAR Greater than by GRAMMER % SEP” value was found to be 24.0%. In test [3], the Ki came out at 2.5 nM.

As to `CC(C)CN(CC(O)C(F)(F)F)C(=O)[C@H]1CCC2=Cc3c(cnn3-c3ccc(F)cc3)C[C@@]21C` (stereo partly drawn) [Compound 58, (4αR,5S)-1-(4-fluorophenyl)-N-isobutyl-4α-methyl-N-(3,3,3-trifluoro-2-hydroxypropyl)-1,4,4α,5,6,7-hexahydrocyclopenta[f]indazole-5-carboxamide], the values for the Emax in test [1], in test [2] (setting [4]) and in test [2] (setting [5]) were 71.5%, 86.8% and > 5%, respectively. The values for the EC50 in test [1] and in test [2] (Table 1) were 227 nM and 122 nM, respectively. Further, the “GITAR Greater than by GRAMMER % SEP” value in test [2] (Table 1) is listed as 15.3%. Besides, in test [3], the inhibitory constant (Ki) turned out to be 7.3 nM.

For the molecule `C[C@]12Cc3cnn(-c4ccc(F)cc4)c3C=C1CC[C@@H]2C(=O)N(Cc1ccccc1F)CC(O)C(F)(F)F` (stereo partly drawn) [Compound 59, (4αR,5S)-N-(2-fluorobenzyl)-1-(4-fluorophenyl)-4α-methyl-N-(3,3,3-trifluoro-2-hydroxypropyl)-1,4,4α,5,6,7-hexahydrocyclopenta[f]indazole-5-carboxamide], the Emax in test [1] is 75.2%; in test [2] (setting [4]) it was 76.7%; in test [2] (setting [5]), > 5%. Besides, the EC50 in test [1] came to 117 nM; in test [2] (Table 1) it was 91.5 nM. Also, the “GITAR Greater than by GRAMMER % SEP” value in test [2] (Table 1) is 1.5%. The molecule further registered a Ki in test [3] of 3.9 nM.

For the molecule `C[C@]12Cc3cnn(-c4ccc(F)cc4)c3C=C1CC[C@@H]2C(=O)N(CCO)CC(O)C(F)(F)F` (stereo partly drawn) [Compound 60, (4αR,5S)-1-(4-fluorophenyl)-N-(2-hydroxyethyl)-4α-methyl-N-(3,3,3-trifluoro-2-hydroxypropyl)-1,4,4α,5,6,7-hexahydrocyclopenta[f]indazole-5-carboxamide], the Emax in test [1] is 55.6%; in test [2] (setting [4]), 85.4%; in test [2] (setting [5]), > 5%. For the same molecule, the EC50 in test [1] is 46.3 nM; in test [2] (Table 1), 87.1 nM. In addition, the “GITAR Greater than by GRAMMER % SEP” value in test [2] (Table 1) is 29.8%. Also, the affinity in test [3], expressed as Ki, was 12.6 nM.

Take `CCCN(CC(O)C(F)(F)F)C(=O)[C@H]1CCC2=Cc3c(cnn3-c3ccc(F)cc3)C[C@@]21C` (stereo partly drawn) [Compound 61, (4αR,5S)-1-(4-fluorophenyl)-4α-methyl-N-propyl-N-(3,3,3-trifluoro-2-hydroxypropyl)-1,4,4α,5,6,7-hexahydrocyclopenta[f]indazole-5-carboxamide]: the Emax in test [1] is 82.4%; in test [2] (setting [4]) it was 96.5%; in test [2] (setting [5]), > 5%. Also, the results for the EC50 in test [1] and in test [2] (Table 1) were 55.6 nM and 41.2 nM, respectively. For the same molecule, the “GITAR Greater than by GRAMMER % SEP” value in test [2] (Table 1) is 14.0%. This molecule also yielded a Ki in test [3] of 1 nM.
